Source: US20140196172A1, “Organelle Targeting Nanocarriers” (Her Majesty the Queen in Right of Canada, as Repre sented …, priority 2011, published 2014)

The sequences below were run on linearized plasmid DNA (linear double stranded DNA, 6.8 kb) (assay: Gel mobility shift assay). Details: minimum peptide needed for complete shift of 100 ng plasmid DNA; — = no shift up to highest ratio tested.
Assay type: binding
Procedure: The ten non-labelled oTP sequences identified as having both cell penetrating and organelle targeting properties (Tables 3 and 4) were tested, using a gel mobility shift assay and a nuclease protection assay, for their ability to bind non-covalently to nucleic acids.
The gel mobility shift assay is used to determine the minimum peptide concentration needed to bind to plasmid DNA and cause it to shift during electrophoresis. Purified linearized plasmid DNA (100 ng of linear double stranded DNA, 6.8 kb) is mixed with increasing concentrations of each of the ten oTPs listed in Tables 3 and 4, according to calculated increasing peptide:DNA charge ratios (1:1, 2:1, 3:1, 4:1, 5:1, etc.) until a complete shift is observed in the plasmid DNA during electrophoresis. The DNA is prepared to a final concentration of a 100 ng/μl in sterile water. Each reaction has a final volume of 25 μl and is incubated for 30 min for complex formation and subjected to electrophoresis on 1% agarose gel stained with ethidium bromide.

Sequence	Peptide:DNA Ratio, Molar Binding Ratio
MAAWMRSLFSPLKKLWIRMH (Zea mays) [mTP2]	167.39
MLFRLRRSVRLRGLLA (listed as Arabidopsis thaliana) [mTP5]	114.29
MFSYLPRYPLRAASARALVRATRPSYRSALLRYQ (listed as Triticum aestivum) [mTP1]	264.14
MKLLWRLILSRKW (listed as Arabidopsis thaliana) [mTP3]	71.39

The sequences below were run on chloroplasts of triticale protoplasts (assay: qRT-PCR of gfp mRNA, protoplasts transfected with pWCaadA16GFP). Details: gfp reporter construct.
Assay type: cell-based
Text: FIG. 20 is a plot showing the level of expression (fold increase, average of 4 replicates) of GFP in triticale protoplasts transfected with the pWCaadA16GFP plasmid in the presence of cTP1 (SEQ ID NO: 6), cTP2 (SEQ ID NO: 7), cTP3 (SEQ ID NO: 8), cTP4 (SEQ ID NO: 9) or cTP5 (SEQ ID NO: 10) compared to the level of expression (fold increase) of the internal control elongation factor 1a (EF1a), as measured by quantitative real time PCR of mRNA levels.
Wheat chloroplast aadA16GFP reporter plasmid (pWCaadA16GFP, FIG. 12) is a 4212 base pair wheat specific plastid transformation vector, which targets insertions into the tml-tmA inverted repeat regions of the Triticum aestivum plastid genome at nucleotides 92850-93727 and 93794-94671 (GenBank accession No. AB042240.3). A multiple cloning site is introduced following the tml target insertion sequence. The selection marker gene is an organelle codon specific aad-gfp fusion gene, which facilitates a dual selection method of spectinomycin resistance through an aadA derivative and visual detection by GFP fluorescence (GenBank accession No. ABX39486; Khan and Maliga, Nat. Biotechnol. (1999 September) 17(9): 910-5). The selection marker gene is driven by the Triticum aestivum plastid genome promoter (psbA) at nucleotides 1282-1153 (GenBank accession No. AB042240.3). The aad-gfp fusion gene is terminated with the rice psbA terminator sequence derived from chloroplast transformation vector pVSR326 nucleotides 4014-4387 (GenBank accession No. AF527485.1).
The dsDNA construct (pWMaadA16GFP for mitochondrial expression or pWCaadA16GFP for expression in chloroplasts) is combined with the mTP (for mitochondrial expression) or cTP (for expression in chloroplasts) in a final volume of 100 μl of CPW solution. For experiments using mTP1 (SEQ ID NO: 1), mTP2 (SEQ ID NO: 2), mTP3 (SEQ ID NO: 3), or mTP5 (SEQ ID NO: 5), peptides (scaled up from 100 ng, at four times the concentration needed to cause a DNA shift in the gel mobility shift assay (Table 7)) are combined with the pWMaadA16GFP construct (5 μg). For experiments using the remaining oTPs, peptides (30 μg) are combined with the appropriate dsDNA construct (1.5 μg). The mixture is incubated for 10 minutes at room temperature, then incubated with isolated triticale mesophyll protoplasts (500 μl, 10^6 protoplasts/ml, prepared as described in Example 2) for 1 h in the dark at room temperature. CPW solution (500 μl) is added and the mixture is incubated in the dark for 24 h. The cells are imaged using confocal microscopy, as described in Example 2, using MitoTracker® Orange staining to visualize mitochondria and chlorophyll autofluorescence to visualize chloroplasts.
cDNA is generated using a First Strand Synthesis kit (Invitrogen). RNA (1 μg) is added to each sample and the manufacturer's protocol for synthesis followed, with the exception that the volume of the reaction mixture is increased from 20 μl to 30 μl. A negRT sample containing all reagents but no RNA is included in the cDNA synthesis as a negative control.
Standard curves are generated for both elongation factor 1a (EF1a) (internal control) and green fluorescent protein (GFP) (test) genes. The EF1a curve is generated by pooling 6 μl of each cDNA sample (excluding the negRT control), then carrying out a serial dilution of 0.5 for 5 more dilutions. […]
Real time PCR reactions are performed using QuantiTect™ SYBR™ Green PCR Master Mix (Qiagen) in a 20 μl reaction volume. […]

Sequence	GFP expression by chloroplasts confirmed by qRT-PCR
MSSPPPLFTSCLPASSPSIRRDSTSGSVTSPLR (listed as Arabidopsis thaliana) [cTP5]	GFP is expressed
MQTLTASSSVSSIQRHRPHPAGRRSSSVTFS (listed as Triticum aestivum) [cTP2]	GFP is expressed
MGGCVSTPKSCVGAKLR (listed as Arabidopsis thaliana) [cTP1]	GFP is expressed
MAALIPAIASLPRAQVEKPHPMPVSTRPGLVS (listed as Triticum aestivum) [cTP4]	GFP is expressed
